Reference: patent publication US7910751B2, “Heterocyclidene acetamide derivative” (Mochida Pharmaceutical Co., Ltd., priority 2005, dated 2011)

target: T1, human TRPV1 (Homo sapiens, UniProt Q8NER1); assay: Measurement of capsaicin-induced Ca influx in human TRPV1 transformed CHO cell line using FDSS-6000; format: cell-based; details: concentration at which the capsaicin concentration-reaction curve is shifted two times to the right, human TRPV1 transformed CHO cells
T1 construct: expressed in transfected cells; host or cells: CHO-K1
T1 sequence (Q8NER1 whole entry): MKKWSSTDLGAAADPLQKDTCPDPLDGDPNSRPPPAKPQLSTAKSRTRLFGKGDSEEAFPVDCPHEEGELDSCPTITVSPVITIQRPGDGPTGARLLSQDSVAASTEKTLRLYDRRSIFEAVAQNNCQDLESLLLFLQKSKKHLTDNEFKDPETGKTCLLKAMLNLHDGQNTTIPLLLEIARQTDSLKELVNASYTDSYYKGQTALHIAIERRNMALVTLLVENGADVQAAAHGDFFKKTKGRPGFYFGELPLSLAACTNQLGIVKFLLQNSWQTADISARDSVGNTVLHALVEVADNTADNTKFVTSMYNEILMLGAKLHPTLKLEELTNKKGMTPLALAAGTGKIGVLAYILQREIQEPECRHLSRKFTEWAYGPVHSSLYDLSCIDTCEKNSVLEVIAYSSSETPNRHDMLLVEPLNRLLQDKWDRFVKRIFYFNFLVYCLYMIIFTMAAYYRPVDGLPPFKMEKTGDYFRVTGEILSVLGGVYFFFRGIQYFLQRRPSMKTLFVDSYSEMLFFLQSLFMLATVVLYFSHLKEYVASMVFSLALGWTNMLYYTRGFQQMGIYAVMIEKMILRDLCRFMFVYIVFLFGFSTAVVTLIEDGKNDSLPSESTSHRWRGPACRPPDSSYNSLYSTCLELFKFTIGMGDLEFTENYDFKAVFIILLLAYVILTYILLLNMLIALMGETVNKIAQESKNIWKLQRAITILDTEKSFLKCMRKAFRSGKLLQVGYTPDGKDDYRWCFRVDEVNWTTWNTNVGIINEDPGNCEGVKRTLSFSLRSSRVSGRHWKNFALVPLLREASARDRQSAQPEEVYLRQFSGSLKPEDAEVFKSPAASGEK

Row | SMILES | A2 VALUE
1 | O=C(/C=C1\CCCOc2cc(C(F)(F)F)ccc21)Nc1ccc2c(c1)OC(F)(F)O2 [Example 143, (E)-2-(8-trifluoromethyl-3,4-dihydrobenzo[b]oxepin-5(2H)-ylidene)-N-(2,2-difluoro-1,3-benzodioxol-5-yl)acetamide] | B (compounds having an A2 value of 100 nM or more are represented by B)
2 | O=C(/C=C1\CCCOc2cc(C(F)(F)F)ccc21)Nc1ccc2c(c1)OCO2 [Example 144, (E)-2-(8-trifluoromethyl-3,4-dihydrobenzo[b]oxepin-5(2H)-ylidene)-N-(1,3-benzodioxol-5-yl)acetamide] | A (compounds of the present invention having an A2 value of less than 100 nM are represented by A)
3 | Cn1ccc2cc(NC(=O)/C=C3\CCCOc4cc(C(F)(F)F)ccc43)ccc21 [Example 149, (E)-2-(8-trifluoromethyl-3,4-dihydrobenzo[b]oxepin-5(2H)-ylidene)-N-(1-methylindol-5-yl)acetamide] | A (compounds of the present invention having an A2 value of less than 100 nM are represented by A)
4 | O=C(/C=C1\CCCOc2cc(C(F)(F)F)ccc21)Nc1cccc2c(O)cccc12 [Example 150, (E)-2-(8-trifluoromethyl-3,4-dihydrobenzo[b]oxepin-5(2H)-ylidene)-N-(5-hydroxynaphthalen-1-yl)acetamide] | A (compounds of the present invention having an A2 value of less than 100 nM are represented by A)
5 | O=C(/C=C1\CCCOc2cc(C(F)(F)F)ccc21)Nc1ccc2ccn(CCO)c2c1 [Example 151, (E)-2-(8-trifluoromethyl-3,4-dihydrobenzo[b]oxepin-5(2H)-ylidene)-N-(1-(2-hydroxyethyl)indol-6-yl)acetamide] | A (compounds of the present invention having an A2 value of less than 100 nM are represented by A)
6 | Cn1ccc2ccc(NC(=O)/C=C3\CCCOc4cc(C(F)(F)F)ccc43)cc21 [Example 152, (E)-2-(8-trifluoromethyl-3,4-dihydrobenzo[b]oxepin-5(2H)-ylidene)-N-(1-methylindol-6-yl)acetamide] | A (compounds of the present invention having an A2 value of less than 100 nM are represented by A)
7 | O=C(/C=C1\CCCOc2cc(C(F)(F)F)ccc21)Nc1ccc2c(c1)C(=O)CC2 [Example 157, (E)-2-(8-trifluoromethyl-3,4-dihydrobenzo[b]oxepin-5(2H)-ylidene)-N-(indan-1-on-6-yl)acetamide] | A (compounds of the present invention having an A2 value of less than 100 nM are represented by A)
8 | O=C(/C=C1\CCCOc2cc(C(F)(F)F)ccc21)Nc1cccc2c1CCC2O (centres unmarked) [Example 160, (E)-2-(8-trifluoromethyl-3,4-dihydrobenzo[b]oxepin-5(2H)-ylidene)-N-(indan-1-ol-4-yl)acetamide] | A (compounds of the present invention having an A2 value of less than 100 nM are represented by A)
9 | CC(=O)OC1CCc2c(NC(=O)/C=C3\CCCOc4cc(C(F)(F)F)ccc43)cccc21 (centres unmarked) [Example 161, (E)-2-(8-trifluoromethyl-3,4-dihydrobenzo[b]oxepin-5(2H)-ylidene)-N-(indan-1-acetoxy-4-yl)acetamide] | B (compounds having an A2 value of 100 nM or more are represented by B)
10 | O=C(/C=C1\CCCOc2cc(C(F)(F)F)ccc21)Nc1cccc2c1CC(O)C2 (centres unmarked) [Example 163, (E)-2-(8-trifluoromethyl-3,4-dihydrobenzo[b]oxepin-5(2H)-ylidene)-N-(indan-2-ol-4-yl)acetamide] | A (compounds of the present invention having an A2 value of less than 100 nM are represented by A)
11 | O=C(/C=C1\CCCOc2cc(C(F)(F)F)ccc21)Nc1ccc2c(ccn2CCO)c1 [Example 164] | A (compounds of the present invention having an A2 value of less than 100 nM are represented by A)
12 | O=C(/C=C1\CCCOc2cc(C(F)(F)F)ccc21)Nc1ccc2c(c1)OC(CO)CO2 (centres unmarked) [Example 165, (E)-2-(8-trifluoromethyl-3,4-dihydrobenzo[b]oxepin-5(2H)-ylidene)-N-(3-hydroxymethyl-2,3-dihydro-1,4-benzodioxin-6-yl)acetamide] | A (compounds of the present invention having an A2 value of less than 100 nM are represented by A)
13 | O=C(/C=C1\CCCOc2cc(C(F)(F)F)ccc21)Nc1ccc2c(c1)C(=O)NC2 [Example 166, (E)-2-(8-trifluoromethyl-3,4-dihydrobenzo[b]oxepin-5(2H)-ylidene)-N-(2,3-dihydro-isoindol-1-on-6-yl)acetamide] | A (compounds of the present invention having an A2 value of less than 100 nM are represented by A)
14 | O=C(/C=C1\CCCOc2cc(C(F)(F)F)ccc21)Nc1ccc2c(c1)NCCC2 [Example 167, (E)-2-(8-trifluoromethyl-3,4-dihydrobenzo[b]oxepin-5(2H)-ylidene)-N-(1,2,3,4-tetrahydroquinolin-7-yl)acetamide] | A (compounds of the present invention having an A2 value of less than 100 nM are represented by A)
15 | O=C(/C=C1\CCCOc2cc(C(F)(F)F)ccc21)Nc1cccc2c1CC1OC1C2 (centres unmarked) [Example 169, (E)-2-(8-trifluoromethyl-3,4-dihydrobenzo[b]oxepin-5(2H)-ylidene)-N-(1a,2,7,7a-tetrahydronaphtho[b]oxiren-3-yl)acetamide] | A (compounds of the present invention having an A2 value of less than 100 nM are represented by A)
16 | O=C(/C=C1\CCCOc2cc(C(F)(F)F)ccc21)Nc1ccc2c(c1)C(O)CC2 (centres unmarked) [Example 175, (E)-2-(8-trifluoromethyl-3,4-dihydrobenzo[b]oxepin-5(2H)-ylidene)-N-(indan-1-ol-6-yl)acetamide] | A (compounds of the present invention having an A2 value of less than 100 nM are represented by A)
17 | O=C(/C=C1\CCCOc2cc(C(F)(F)F)ccc21)Nc1ccc2c(c1)C(=O)N(CCO)C2 [Example 176, (E)-2-(8-trifluoromethyl-3,4-dihydrobenzo[b]oxepin-5(2H)-ylidene)-N-(2-hydroxyethyl-2,3-dihydro-isoindol-1-on-6-yl)acetamide] | B (compounds having an A2 value of 100 nM or more are represented by B)
18 | CN1C(=O)CCc2ccc(NC(=O)/C=C3\CCCOc4cc(C(F)(F)F)ccc43)cc21 [Example 178, (E)-2-(8-trifluoromethyl-3,4-dihydrobenzo[b]oxepin-5(2H)-ylidene)-N-(1-methyl-2-oxo-1,2,3,4-tetrahydroquinolin-7-yl)acetamide] | A (compounds of the present invention having an A2 value of less than 100 nM are represented by A)
19 | O=C(/C=C1\CCCOc2cc(C(F)(F)F)ccc21)Nc1ccc2c(c1)C(CO)CCC2 (centres unmarked) [Example 179, (E)-2-(8-trifluoromethyl-3,4-dihydrobenzo[b]oxepin-5(2H)-ylidene)-N-(8-hydroxymethyl-5,6,7,8-tetrahydronaphthalen-2-yl)acetamide] | A (compounds of the present invention having an A2 value of less than 100 nM are represented by A)
20 | O=C(/C=C1\CCCOc2cc(C(F)(F)F)ccc21)Nc1cccc2c1CC(O)CO2 (centres unmarked) [Example 183, (E)-2-(8-trifluoromethyl-3,4-dihydrobenzo[b]oxepin-5(2H)-ylidene)-N-(3-hydroxy-chroman-5-yl)acetamide] | A (compounds of the present invention having an A2 value of less than 100 nM are represented by A)
